Reference: patent publication US8367645B2, “Compositions and methods for treating hyperproliferative diseases” (priority 2008, dated 2013)
Marks after values point to notes of the source that are not given here.

Tests used:
[1] = test system: transplanted human hepatoma (Hep G2 cells); experiment: Volume of transplanted human hepatoma (Hep G2) in hairless mice; type: in vivo
Description: The procedures for performing this test were as follows. Hep G2 cells were prepared at 25*10^6 cells/ml and 0.2 ml of the cell suspension (5*10^6 cells) was injected in an exposed mouse mammary fat pad. When tumors achieved the required size (0.5 cm^3), animals would be treated with 50 μl of B10, dehydrated alcohol or 10% glucose solution once daily for 6 days. During 12 days after the last injection, tumor volume will be assessed by measuring tumor dimensions (long (L) and short (S)) and estimated it as V=0.52*L*S^2. 12 days after the last injection, mice would be sacrificed and tumors would be dissected, weighed and stored in a formaline solution for further evaluation.).

[2] = test system: B16 (mice melanoma cells); settings: metformin 5 mM alone or in combination
Description: Each of the cell samples were then tested in a flow cytometer. The testing methodology and equipment used are set forth as follows. Cells were harvested and washed twice with phosphate buffered saline, (PBS) and fixed in 70% cold ethanol at 4° C. overnight. Before analysis, cells were washed twice with PBS, containing 1% bovine serum albumin (BSA), then resuspended with 400 μl PBS and treated with 100 μg/ml RNase A (Roche Diagnostics) and 50 μg/ml propidium iodide (PI) (Sigma). After incubation for 30 min at 37° C., the cells were subjected to DNA content analysis. propidium iodide, (PI) fluorescence was analyzed with a FACS calibur flowcytometer, (Becton Dickinson). Data from at least 10,000 cells were analyzed with software.
In Example 5, Metformin 5 mM; Metformin 5 mM+aspirin 2 mM; and Metformin 5 mM+aspirin 2 mM+serotonin creatinine sulfate complex 0.001 mM were tested to determine the effect on cell cycle on B16 (mice melanoma cells) during the G1, S and G2 cell phases. The procedure for testing using the flow cytometer was carried out as set forth in Example 1 above.

Row | SMILES | rate of elimination of hepatoma volume [1] [%] | Volume After Treatment ([1]; Hep G2 tumor, 50 μl once daily for 6 days, 10% G.S. 444 ± 199) | Volume Before Treatment ([1]; Hep G2 tumor, before treatment) | Volume Changes ([1]; Hep G2 tumor, ↓ = decrease, 10% G.S. ↑158%) | S ([2]; control 12.8) | G2 ([2]; control 23.1) | G1 ([2]; control 64)
1 | CCO [Dehydration ethanol] | 52.7 | 89 ± 120** | 188 ± 119 | ↓52.7% |  |  | 
2 | CN(C)C(=N)N=C(N)N [Metformin] |  |  |  |  | 4.6 | 23.6 | 71.8
